Experimental data published in patent publication US8617528B2, “Compositions and methods for stabilizing ingredients using 2,4-pentanedione compounds” (Sytheon Ltd., priority 2010, dated 2013).
One block for each compound: values may come before it.

How the values were obtained:
[1] = Photostabilization of avobenzone in ethanol test solution under sun simulator
Protocol: A comparative photostabilization study was conducted comparing the photostabilization efficacy of the compound of Example 1, HSS, and the compound of Example 3 (Compound 3) with Octocrylene and Oxynex® ST in the stabilization of avobenzone. Samples for evaluation were prepared as follows:
Solutions in ethanol are prepared at respective concentrations of photosensitive materials and photostabilizer (typically 1:1 to 1:5 weight ratio). A base test solution of 3% Avobenzone+5% Octyl salicylate +10% Homoslate in Ethanol (the “Test Solution”) was made. Seven additional solutions were prepared by adding 2% Synoxyl™ HSS, 4% Synoxyl™ HSS, 4% Compound 3, 2% Octocrylene, 4% Octocrylene, 2% Oxynex® ST, and 2% dehydrozingerone methyl ether, respectively, to seven aliquots of the Test Solution.
(§1) Samples of each solution were prepared as ultrathin films between two quartz plates so as to obtain a minimum of 90% light transmission over the entire spectrum range of non absorbing chromophores. For example, ingredients which absorb only in the UV range were tested in formulation to obtain a minimum of 90% light transmission over the visible range. Each sample was then irradiated under sun simulator (754 W/m^2, 2 MED/h, UV dose from 20 to 100 Joules/cm^2) for various durations and light absorption spectra recorded for each sample at given times. The maximal absorption band λmax of each solution was determined before and after irradiation. The amount of the photosensitive materials remaining in solution after irradiation was calculated as the ratio of their two maximal absorptions.

[2] = solar simulator, total energy 100 mJ/cm^2; cited from earlier work
[3] = cited from earlier work
[4] = Photostability of sunscreen formulation under sun simulator
Protocol: as §1
Three samples of this were taken for photostability testing according to the method of Example 6 above. The first sample, the Control, was not modified whereas the two remaining samples were modified by incorporating therein 2% of the compound of Example 1, HSS, and 4% octocrylene, respectively. The three formulations were prepared by first preparing each of Phase A1 and A2 and then dispersing Phase A2 in Phase A1 with agitation and heating to 75 C. Phase B was prepared and heated to 75° C. Phase B is then combined with the Phase A mixture with continuous stirring. The combination was subsequently homogenized for 2-3 minutes, and the batch cooled to 45° C. Phases C and were separately prepared and then mixed with the cooled batch until uniform.
As with Example 6, each was exposed to irradiation for various durations and the photostability tested. As evidenced from the results shown in Table 7, the stabilizer compound of the present invention performed markedly better than that of the conventional photostabilizer in the formulated product.

[5] = Stabilization of colored shampoo under fluorescent light (Delta E); details: 0.4 g HSS in 120 g shampoo, ambient temperature, 4 weeks
Protocol: The stabilizer compound according to Example 1, Synoxyl™ HSS, was added to a commercial shampoo formulation in order to evaluate its ability to reduce the amount of dye fading following exposure to fluorescent lighting. The sample was prepared by dissolving 0.4 g of HSS in 5 ml of ethanol and then adding the solution to 120 g of Suave® Natural Fresh Mountain Strawberry Shampoo with agitation and agitated for 15 minutes. A sample of the unmodified shampoo and the modified shampoo are then placed into 20 ml glass scintillation vials. Both sets of vials were weathered under fluorescent light aging at ambient temperature for 4 weeks. The L*a*b coordinates before and after exposure are measured using X-Rite 938 Spectro-densitometer. Color change is expressed as Delta E (ΔE) which is calculated by the formula: ΔE=[(ΔL*)^2+(Δa*)^2+(Δb*)^2]^1/2
Following the 4 week exposure the change in color, Delta E, was 21.6 for the unmodified shampoo and 12.3 for the modified shampoo.

[6] = Photostabilization of water-soluble dyes under solar simulated light; details: 0.05% stabilizer, FD&C Yellow No 5 or Red No 40, solar simulated light ~40 hours
Protocol: The stabilizer compound Synoxyl™ HSS according to Example 1 was added to the two dye compositions of Table 9, one containing Yellow No 5 and the other Red No 40, in order to evaluate its ability to reduce the extent of color fading resulting from their exposure to solar simulated light. In both formulations without the Synoxyl™ HSS, visible and marked color fading was noted following just 2 hours of light exposure.

[7] = Hydrolytic stability of HSS in water at pH 7, 8, 9 (GC purity of recovered solid); assay type: physicochemical
Protocol: A series of hydrolytic stability tests were conducted on the compound of Example 1, HSS, as follows
pH7: 2.5 g of samples of HSS were placed in 100 ml round bottom flasks and 50 ml of double distilled water (pH 7) added to each. […] Thereafter each sample was filtered and the solids dried.
pH 8: 2.5 g of samples of HSS were placed in 100 ml round bottom flasks and 50 ml of double distilled water which had been adjusted to pH 8 using 0.01N NaOH solution added to each. […] Thereafter each sample was filtered and the solids dried.
pH 9: 2.5 g of samples of HSS were placed in 100 ml round bottom flasks and 50 ml of double distilled water which had been adjusted to pH 9 using 0.1N NaOH solution added to each. […] Thereafter each sample was filtered and the solids dried.
Each dried sample was analyzed by gas chromatography using an HP-5, 15 m, 0.53 mm id, capillary column with following set-up and test parameters: • Injection temperature: 250° C. • Oven temp: 50° C. (2 min), 10° C. to 260° C. (20 min) • Detector: FID • Detector temp: 260° C. • Carrier gas: Nitrogen • Column flow: 3.0 ml/min • Split ratio: 5:1 • Injection Volume: 1 micro liter • Sample concentration: 100 mg/ml in Methanol
The initial purity of the HSS used to make Samples A through F was 98.9% as determined by the aforementioned GC procedure.

[8] = Stability of HSS in the presence of iron and copper ions (UV absorbance at 319 nm); assay type: physicochemical; details: acetate buffer pH 6.5/ethanol, room temperature
Protocol: A base buffer solution was prepared by dissolving 13.608 g of sodium acetate in 1000 ml water and then adjusting the pH to 6.5 with acetic acid to form a 0.1 M acetate solution and then combining 75 parts by weight of this solution with 25 parts by weight ethanol.
A copper sulfate solution was prepared by dissolving 24.968 mg of copper sulfate (CuSO4.5H2O) in 100 ml of the base buffer solution.
A ferric sulfate solution was prepared by dissolving 16.22 mg of […] in 100 ml of the base buffer solution.
Finally a 100 μM test solution of HSS was prepared by dissolving 27.8 mg of HSS in 10 ml of the base buffer solution and then diluting 0.1 ml of this solution to 10 ml with additional base buffer solution.
Two test solutions were prepared as follows:
Copper Stability: 0.1 ml of the 100 μM solution of HSS was combined with 0.1 ml of the 10 μM CuSO4 solution in a 10 ml volumetric flask and additional base buffer solution added to make up to volume (to 10 ml). […]
The two test solutions and a sample of the HSS solution were then evaluated to assess what, if any, auto-oxidation of the HSS occurred in the presence of Cu^2+ and Fe^3+ ions. Stability or instability was evaluated by monitoring the absorbance at 319 nm for HSS at room temperature using a Shimadzu spectrophotometer.

[9] = 4% stabilizer in Test Solution (3% Avobenzone), UV dose 0 Joules/cm^2
[10] = 4% stabilizer in Test Solution (3% Avobenzone), UV dose 20 Joules/cm^2
[11] = 4% stabilizer in Test Solution (3% Avobenzone), UV dose 40 Joules/cm^2
[12] = 4% stabilizer in Test Solution (3% Avobenzone), UV dose 60 Joules/cm^2
[13] = 4% stabilizer in Test Solution (3% Avobenzone), UV dose 80 Joules/cm^2
[14] = 4% stabilizer in Test Solution (3% Avobenzone), UV dose 100 Joules/cm^2
[15] = 2% stabilizer in Test Solution (3% Avobenzone), UV dose 0 Joules/cm^2
[16] = 2% stabilizer in Test Solution (3% Avobenzone), UV dose 20 Joules/cm^2
[17] = 2% stabilizer in Test Solution (3% Avobenzone), UV dose 40 Joules/cm^2
[18] = 2% stabilizer in Test Solution (3% Avobenzone), UV dose 60 Joules/cm^2
[19] = 2% stabilizer in Test Solution (3% Avobenzone), UV dose 80 Joules/cm^2
[20] = 2% stabilizer in Test Solution (3% Avobenzone), UV dose 100 Joules/cm^2

photostability of sunscreen formulation (% remaining) ([4]; 2% stabilizer in sunscreen with 2% butyl methoxydibenzoylmethane, UV dose 0 Joules/cm^2): 100% | photostability of sunscreen formulation (% remaining) ([4]; 2% stabilizer in sunscreen with 2% butyl methoxydibenzoylmethane, UV dose 20 Joules/cm^2): 96% | photostability of sunscreen formulation (% remaining) ([4]; 2% stabilizer in sunscreen with 2% butyl methoxydibenzoylmethane, UV dose 40 Joules/cm^2): 92% | photostability of sunscreen formulation (% remaining) ([4]; 2% stabilizer in sunscreen with 2% butyl methoxydibenzoylmethane, UV dose 60 Joules/cm^2): 88% | % remaining [1, 15]: 100% | % remaining [1, 16]: 96% | % remaining [1, 17]: 90% | % remaining [1, 18]: 84% | % remaining [1, 19]: 77% | % remaining [1, 20]: 70% | % remaining [1, 9]: 100% | % remaining [1, 10]: 96% | % remaining [1, 11]: 90% | % remaining [1, 12]: 84% | % remaining [1, 13]: 80% | % remaining [1, 14]: 76% | hydrolytic stability ([7]; pH 7, 8, and 9 at 40° C. and at 60° C. for at least 8 hrs): stable | GC purity (Area %) ([7]; pH 7, 40° C., 4 h): 98.9 Area % | GC purity (Area %) ([7]; pH 7, 40° C., 8 h): 99.1 Area % | GC purity (Area %) ([7]; pH 7, 60° C., 4 h): 98.6 Area % | GC purity (Area %) ([7]; pH 7, 60° C., 8 h): 99.0 Area % | GC purity (Area %) ([7]; pH 7, RT (~27° C.), 4 h): 98.8 Area % | GC purity (Area %) ([7]; pH 7, RT (~27° C.), 8 h): 99.0 Area % | GC purity (Area %) ([7]; pH 8, 40° C., 4 h): 98.9 Area % | GC purity (Area %) ([7]; pH 8, 40° C., 8 h): 99.1 Area % | GC purity (Area %) ([7]; pH 8, 60° C., 4 h): 99.2 Area % | GC purity (Area %) ([7]; pH 8, 60° C., 8 h): 99.0 Area % | GC purity (Area %) ([7]; pH 8, RT (~27° C.), 4 h): 98.7 Area % | GC purity (Area %) ([7]; pH 8, RT (~27° C.), 8 h): 99.2 Area % | GC purity (Area %) ([7]; pH 9, 40° C., 4 h): 99.0 Area % | GC purity (Area %) ([7]; pH 9, 40° C., 8 h): 98.9 Area % | GC purity (Area %) ([7]; pH 9, 60° C., 4 h): 99.1 Area % | GC purity (Area %) ([7]; pH 9, 60° C., 8 h): 98.8 Area % | GC purity (Area %) ([7]; pH 9, RT (~27° C.), 4 h): 98.8 Area % | GC purity (Area %) ([7]; pH 9, RT (~27° C.), 8 h): 98.8 Area %
SMILES: COc1cc(C=C(C(C)=O)C(C)=O)cc(OC)c1OC [HSS, 3-(3,4,5-trimethoxybenzylidene)-2,4-pentanedione]
change in color, Delta E [5]: 12.3 | color fading of dye formulation [6]: failed to manifest color fading | stability (auto-oxidation) in the presence of iron and copper ions [8]: stable irrespective of the presence of iron and copper ions

photostability of sunscreen formulation (% remaining) ([4]; 4% stabilizer in sunscreen with 2% butyl methoxydibenzoylmethane, UV dose 0 Joules/cm^2): 100% | photostability of sunscreen formulation (% remaining) ([4]; 4% stabilizer in sunscreen with 2% butyl methoxydibenzoylmethane, UV dose 20 Joules/cm^2): 94% | photostability of sunscreen formulation (% remaining) ([4]; 4% stabilizer in sunscreen with 2% butyl methoxydibenzoylmethane, UV dose 40 Joules/cm^2): 89% | photostability of sunscreen formulation (% remaining) ([4]; 4% stabilizer in sunscreen with 2% butyl methoxydibenzoylmethane, UV dose 60 Joules/cm^2): 82% | % remaining [1, 15]: 100% | % remaining [1, 16]: 92% | % remaining [1, 17]: 80% | % remaining [1, 18]: 68% | % remaining [1, 19]: 64% | % remaining [1, 20]: 58% | % remaining [1, 9]: 100% | % remaining [1, 10]: 94% | % remaining [1, 11]: 83% | % remaining [1, 12]: 73% | % remaining [1, 13]: 67% | % remaining [1, 14]: 60%
SMILES: CCCCC(CC)COC(=O)C(C#N)=C(c1ccccc1)c1ccccc1 (stereo not drawn) [Octocrylene]

% remaining [1, 15]: 100% | % remaining [1, 16]: 59% | % remaining [1, 17]: 26%
SMILES: COc1ccc(/C=C/C(C)=O)cc1OC [Dehydrozingerone methyl ether, Dehydrozingerone methylether]
stabilization of photosensitive compounds ([1]; summary statement): fails to stabilize photosensitive compounds

More lines, now with the values behind:

SMILES: COc1ccc(C=C(C(C)=O)C(C)=O)cc1 [Compound 3, 3-(4-methoxybenzylidene)-2,4-pentanedione]
% remaining [1, 9]: 100% | % remaining [1, 10]: 96% | % remaining [1, 11]: 90% | % remaining [1, 12]: 80% | % remaining [1, 13]: 73% | % remaining [1, 14]: 68% | melting point: 82 to 84 °C

SMILES: Cc1ccc(C(C)C)cc2c(C)ccc1-2 [Guaiazulene]
lost due to degradation [2]: ~90%

SMILES: CC1=C(/C=C/C(C)=C/C=C/C(C)=C/C(=O)O)C(C)(C)CCC1 [tretinoin, all-trans-retinoic acid]
solubility in diethylhexyl diester of 2,6-naphthalene-dicarboxylic acid [3]: approximately 5.6 mg/ml | solubility in water ([3]; water): practically insoluble

SMILES: CC1=C(/C=C/C(C)=C/C=C/C(C)=C\C(=O)O)C(C)(C)CCC1 [isotretinoin, 13-cis-retinoic acid]
solubility in diethylhexyl diester of 2,6-naphthalene-dicarboxylic acid [3]: approximately 6.7 mg/ml
